The values that follow come from patent publication US20210403485A1, “PYRAZOLOPYRIMIDINE DERIVATIVE AS SELECTIVE TRK INHIBITOR” (SHANDONG LUYE PHARMACEUTICAL CO., LTD., priority 2018, published 2021).

In one data set the target is T1, Ros1 (Homo sapiens, UniProt P08922).
T1 construct: purchased Reaction Biology Corp
Description: Kinase inhibitory activity (33P-ATP, filtration-binding method, Reaction Biology Corp.). In kind it is biochemical. The conditions noted are these: read-out: Half maximal inhibitory concentration IC50 for kinases, Ros1. As for the experimental part:
(§1) The mixture was incubated at room temperature for 20 minutes, added with ^33P-ATP at a certain concentration to start the reaction, and then incubated at room temperature for 120 minutes. Finally, the radioactivity of the reactant was detected by the filtration-binding method. The final kinase activity was expressed as the ratio of the remaining kinase activity in the test sample to the kinase activity of the DMSO control. The dose-response curves were fitted and IC50 values were calculated by GraphPad software.

Another data set addresses T2, TrkC (Homo sapiens, UniProt Q16288).
T2 construct: purchased Reaction Biology Corp
The data set is described as above. In kind it is biochemical. The note with it: read-out: Half maximal inhibitory concentration IC50 for kinases, TrkC. As for the experimental part:
as §1

A further data set addresses T3, TrkA (Homo sapiens, UniProt P04629).
T3 construct: purchased Reaction Biology Corp
The data set is described as above. In kind it is biochemical. The note with it: read-out: Half maximal inhibitory concentration IC50 for kinases, TrkA. As for the experimental part: as §1

The next data set concerns the target T4, ALK (Homo sapiens, UniProt Q9UM73).
T4 construct: purchased Reaction Biology Corp
The description is as above. In kind it is biochemical. The conditions noted are these: read-out: Half maximal inhibitory concentration IC50 for kinases, ALK. On the procedure: as §1

Another data set deals with T5, TrkA-G667C (Homo sapiens, UniProt P04629, G667C).
T5 construct: purchased Reaction Biology Corp
The description is as above. It counts as biochemical. The note with it: read-out: Half maximal inhibitory concentration IC50 for kinases, TrkA-G667C. On the procedure:
as §1

The target of a further data set is T6, TrkA-G595R (Homo sapiens, UniProt P04629, G595R).
T6 construct: purchased Reaction Biology Corp
T6 sequence (P04629 33-796 G595R): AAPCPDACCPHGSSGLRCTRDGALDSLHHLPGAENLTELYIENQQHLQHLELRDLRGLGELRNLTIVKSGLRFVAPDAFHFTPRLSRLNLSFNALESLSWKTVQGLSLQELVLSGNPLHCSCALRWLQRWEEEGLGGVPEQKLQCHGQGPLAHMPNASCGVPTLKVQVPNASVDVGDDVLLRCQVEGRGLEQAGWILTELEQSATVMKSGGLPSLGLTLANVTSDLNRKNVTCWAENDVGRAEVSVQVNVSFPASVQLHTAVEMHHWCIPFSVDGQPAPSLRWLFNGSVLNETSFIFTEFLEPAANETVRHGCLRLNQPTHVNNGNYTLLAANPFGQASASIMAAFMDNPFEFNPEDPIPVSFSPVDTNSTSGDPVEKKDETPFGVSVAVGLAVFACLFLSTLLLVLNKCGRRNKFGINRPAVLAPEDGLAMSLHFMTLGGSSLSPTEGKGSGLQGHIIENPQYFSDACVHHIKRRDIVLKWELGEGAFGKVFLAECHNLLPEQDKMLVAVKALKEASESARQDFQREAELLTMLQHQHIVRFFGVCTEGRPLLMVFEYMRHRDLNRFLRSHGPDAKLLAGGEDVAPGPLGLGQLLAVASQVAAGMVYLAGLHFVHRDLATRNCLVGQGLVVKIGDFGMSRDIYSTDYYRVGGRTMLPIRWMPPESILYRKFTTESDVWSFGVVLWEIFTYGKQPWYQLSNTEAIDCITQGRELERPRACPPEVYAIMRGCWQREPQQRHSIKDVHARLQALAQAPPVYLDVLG
The data set is described as above. In kind it is biochemical. The note with it: read-out: Half maximal inhibitory concentration IC50 for kinases, TrkA-G595R. As for the experimental part: as §1

The target in another data set is T7, BaF3 ETV6-NTRK3-G623R (Homo sapiens, UniProt Q16288, G623R, cells depend on it).
T7 construct: fused on or other part: N-terminal part of ETV6 (TEL) as fusion partner (part of the key); P41212 (Transcription factor ETV6)
T7 sequence (Q16288 whole entry G623R, the tested form may be a part): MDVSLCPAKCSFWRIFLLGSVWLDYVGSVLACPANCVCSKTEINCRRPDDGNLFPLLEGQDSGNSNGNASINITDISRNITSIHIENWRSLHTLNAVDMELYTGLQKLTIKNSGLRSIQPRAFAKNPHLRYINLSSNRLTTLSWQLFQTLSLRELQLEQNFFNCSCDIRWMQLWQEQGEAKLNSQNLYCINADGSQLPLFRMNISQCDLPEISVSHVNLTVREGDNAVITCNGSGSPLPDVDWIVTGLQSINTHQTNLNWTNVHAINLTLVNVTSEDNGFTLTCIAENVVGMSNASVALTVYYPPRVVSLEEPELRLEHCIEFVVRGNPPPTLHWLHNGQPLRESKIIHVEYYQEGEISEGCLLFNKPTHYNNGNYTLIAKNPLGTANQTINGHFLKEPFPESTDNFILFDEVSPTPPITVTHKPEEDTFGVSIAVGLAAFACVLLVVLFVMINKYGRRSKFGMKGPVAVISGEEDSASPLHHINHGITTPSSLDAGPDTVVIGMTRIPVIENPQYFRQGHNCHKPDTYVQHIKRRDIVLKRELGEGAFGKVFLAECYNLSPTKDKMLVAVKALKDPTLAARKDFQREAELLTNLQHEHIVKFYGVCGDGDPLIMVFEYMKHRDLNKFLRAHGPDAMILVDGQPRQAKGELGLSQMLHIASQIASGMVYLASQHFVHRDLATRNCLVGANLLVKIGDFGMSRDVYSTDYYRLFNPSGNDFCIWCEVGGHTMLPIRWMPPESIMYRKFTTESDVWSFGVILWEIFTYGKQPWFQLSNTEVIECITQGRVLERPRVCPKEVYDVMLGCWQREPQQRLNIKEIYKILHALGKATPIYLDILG
Description: Inhibitory activity against cell proliferation (CellTiter-Glo, 72 hours). The conditions noted are these: read-out: Half maximal inhibitory concentration IC50 of cells, BaF3 ETV6-NTRK3-G623R. It counts as cell-based. On the procedure:
(§2) Adenosine Triphosphate (ATP) is an energy carrier commonly used in various life activities in nature, and is the minimum unit for energy storage and transfer. The CellTiter-Glo™ cell viability assay kit uses luciferase as an assay agent, which requires the involvement of ATP in luminescence. The CellTiter-Glo™ reagent is added into cell culture medium to measure the luminescence value. The luminescence signal is directly proportional to the amount of ATP in the system, and the ATP is positively correlated with the number of viable cells. Therefore, the proliferation of cells can be detected by detecting the ATP content using the CellTiter-Glo kit. In this test, the cell lines used are Ba/F3 LMNA-NTRK1-WT, Ba/F3 LMNA-NTRK1-F589L, BaF3 LMNA-NTRK1-G595R, BaF3 LMNA-NTRK1-G667A, BaF3 ETV6-NTRK3-WT, BaF3 ETV6-NTRK3-G623R, and Ba/F3 SLC34A2-ROS1-WT stable cell strains, 5000 cells/well.
(§3) a) Cells in the logarithmic growth phase were collected and counted using a […]. The cell viability was detected by the trypan blue exclusion method, and the cell viability was kept over 90%.
(§4) b) The cell concentration was adjusted; 90 μL of the cell suspension was added to a 96-well plate.
c) Cells in the 96-well plate were incubated overnight at 37° C. with 5% CO2 and 95% humidity.
(§5) a) A 10-fold compound solution was prepared, with the highest concentration being 10 μM (a total of 9 concentrations, 3-fold dilution). 10 μL of compound solution was added to each well of a 96-well plate inoculated with cells, and three duplicate wells were set for each compound concentration.
b) The cells in the 96-well plate added with compound were incubated for 72 hours at 37° C. with 5% CO2 and 95% humidity, followed by the CTG (CellTiter-Glo) analysis.
(§6) a) The CTG reagent was thawed and the cell plate was equilibrated to room temperature for 30 minutes.
(§7) b) An equal volume of CTG solution was added to each well.
(§8) c) The plate was shaken on an orbital shaker for 5 minutes to lyse the cells.
(§9) d) The cell plate was placed at room temperature for 20 minutes to stabilize the luminescence signal.
(§10) e) The luminescence value was read.
(§11) The data were analyzed using GraphPad Prism 5.0 software, fitted with nonlinear S-curve regression to give dose-response curves, and IC50 values were calculated therefrom.
In general terms: Cellular ATP, detected with luciferase, serves as a proxy for viable cell number.

The target of a further data set is T8, BaF3 ETV6-NTRK3-WT (Homo sapiens, UniProt Q16288).
T8 construct: fused on or other part: N-terminal part of ETV6 (TEL) as fusion partner (part of the key); P41212 (Transcription factor ETV6)
Described as above. It counts as cell-based. The conditions noted are these: read-out: Half maximal inhibitory concentration IC50 of cells, BaF3 ETV6-NTRK3-WT. On the procedure:
as §2, with “kit.” for “kit. In this test, the cell lines used are Ba/F3 LMNA-NTRK1-WT, Ba/F3 LMNA-NTRK1-F589L, BaF3 LMNA-NTRK1-G595R, BaF3 LMNA-NTRK1-G667A, BaF3 ETV6-NTRK3-WT, BaF3 ETV6-NTRK3-G623R, and Ba/F3 SLC34A2-ROS1-WT stable cell strains, 5000 cells/well.”
as §3, §4, §5, §6, §7, §8, §9, §10, §11

The next data set has as its target T9, Ba/F3 SLC34A2-ROS1-WT (Homo sapiens, UniProt P08922).
T9 construct: fused on or other part: N-terminal part of SLC34A2 as fusion partner (part of the key); O95436 (Sodium-dependent phosphate transport protein 2B)
Described as above. It counts as cell-based. The note with it: read-out: Half maximal inhibitory concentration IC50 of cells, Ba/F3 SLC34A2-ROS1-WT. On the procedure:
as §2, with “kit.” for “kit. In this test, the cell lines used are Ba/F3 LMNA-NTRK1-WT, Ba/F3 LMNA-NTRK1-F589L, BaF3 LMNA-NTRK1-G595R, BaF3 LMNA-NTRK1-G667A, BaF3 ETV6-NTRK3-WT, BaF3 ETV6-NTRK3-G623R, and Ba/F3 SLC34A2-ROS1-WT stable cell strains, 5000 cells/well.”
as §3, §4, §5, §6, §7, §8, §9, §10, §11

Another data set has as its target T10, Ba/F3 LMNA-NTRK1-F589L (Homo sapiens, UniProt P04629, F589L, cells depend on it).
T10 construct: fused on or other part: N-terminal part of LMNA as fusion partner (part of the key); P02545 (Prelamin-A/C)
The description is as above. It counts as cell-based. The note with it: read-out: Half maximal inhibitory concentration IC50 of cells, Ba/F3 LMNA-NTRK1-F589L. On the procedure:
as §2, with “kit.” for “kit. In this test, the cell lines used are Ba/F3 LMNA-NTRK1-WT, Ba/F3 LMNA-NTRK1-F589L, BaF3 LMNA-NTRK1-G595R, BaF3 LMNA-NTRK1-G667A, BaF3 ETV6-NTRK3-WT, BaF3 ETV6-NTRK3-G623R, and Ba/F3 SLC34A2-ROS1-WT stable cell strains, 5000 cells/well.”
as §3, §4, §5, §6, §7, §8, §9, §10, §11

The next data set addresses T11, BaF3 LMNA-NTRK1-G595R (Homo sapiens, UniProt P04629, G595R, cells depend on it).
T11 construct: fused on or other part: N-terminal part of LMNA as fusion partner (part of the key); P02545 (Prelamin-A/C)
The data set is described as above. In kind it is cell-based. The conditions noted are these: read-out: Half maximal inhibitory concentration IC50 of cells, BaF3 LMNA-NTRK1-G595R. As for the experimental part:
as §2, with “kit.” for “kit. In this test, the cell lines used are Ba/F3 LMNA-NTRK1-WT, Ba/F3 LMNA-NTRK1-F589L, BaF3 LMNA-NTRK1-G595R, BaF3 LMNA-NTRK1-G667A, BaF3 ETV6-NTRK3-WT, BaF3 ETV6-NTRK3-G623R, and Ba/F3 SLC34A2-ROS1-WT stable cell strains, 5000 cells/well.”
as §3, §4, §5, §6, §7, §8, §9, §10, §11

In a further data set the target is T12, Ba/F3 LMNA-NTRK1-WT (Homo sapiens, UniProt P04629).
T12 construct: fused on or other part: N-terminal part of LMNA as fusion partner (part of the key); P02545 (Prelamin-A/C)
T12 sequence (P04629 whole entry, change not shown, the tested form may be a part): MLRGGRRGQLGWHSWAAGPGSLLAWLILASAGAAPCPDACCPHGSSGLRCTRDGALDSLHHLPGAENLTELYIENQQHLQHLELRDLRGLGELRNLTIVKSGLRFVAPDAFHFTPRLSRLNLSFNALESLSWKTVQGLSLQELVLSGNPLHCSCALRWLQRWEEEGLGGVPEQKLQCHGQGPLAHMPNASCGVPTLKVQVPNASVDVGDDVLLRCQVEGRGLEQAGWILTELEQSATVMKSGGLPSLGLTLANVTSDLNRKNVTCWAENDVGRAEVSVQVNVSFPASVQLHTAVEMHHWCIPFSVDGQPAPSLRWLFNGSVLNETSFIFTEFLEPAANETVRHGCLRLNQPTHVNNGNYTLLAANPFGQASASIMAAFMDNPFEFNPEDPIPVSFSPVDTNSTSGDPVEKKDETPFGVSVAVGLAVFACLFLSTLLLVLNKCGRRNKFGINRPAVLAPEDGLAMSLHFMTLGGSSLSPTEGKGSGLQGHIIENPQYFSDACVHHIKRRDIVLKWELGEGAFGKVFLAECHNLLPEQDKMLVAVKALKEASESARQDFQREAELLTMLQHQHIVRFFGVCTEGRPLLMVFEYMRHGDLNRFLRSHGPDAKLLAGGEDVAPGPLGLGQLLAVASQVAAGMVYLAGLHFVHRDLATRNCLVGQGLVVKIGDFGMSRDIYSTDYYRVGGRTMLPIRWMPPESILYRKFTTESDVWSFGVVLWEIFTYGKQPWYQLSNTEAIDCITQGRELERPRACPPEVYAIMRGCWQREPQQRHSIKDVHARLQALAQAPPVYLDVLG
Described as above. In kind it is cell-based. The note with it: read-out: Half maximal inhibitory concentration IC50 of cells, Ba/F3 LMNA-NTRK1-WT. On the procedure: as §2, with “kit.” for “kit. In this test, the cell lines used are Ba/F3 LMNA-NTRK1-WT, Ba/F3 LMNA-NTRK1-F589L, BaF3 LMNA-NTRK1-G595R, BaF3 LMNA-NTRK1-G667A, BaF3 ETV6-NTRK3-WT, BaF3 ETV6-NTRK3-G623R, and Ba/F3 SLC34A2-ROS1-WT stable cell strains, 5000 cells/well.”
as §3, §4, §5, §6, §7, §8, §9, §10, §11

The target of a further data set is T13, BaF3 LMNA-NTRK1-G667A (Homo sapiens, UniProt P04629, G667A, cells depend on it).
T13 construct: fused on or other part: N-terminal part of LMNA as fusion partner (part of the key); P02545 (Prelamin-A/C)
T13 sequence (P04629 whole entry G667A, the tested form may be a part): as the sequence (P04629 whole entry, change not shown, the tested form may be a part) above, with G667A counted along it
The description is as above. In kind it is cell-based. The conditions noted are these: read-out: Half maximal inhibitory concentration IC50 of cells, BaF3 LMNA-NTRK1-G667A. On the procedure:
as §2, with “kit.” for “kit. In this test, the cell lines used are Ba/F3 LMNA-NTRK1-WT, Ba/F3 LMNA-NTRK1-F589L, BaF3 LMNA-NTRK1-G595R, BaF3 LMNA-NTRK1-G667A, BaF3 ETV6-NTRK3-WT, BaF3 ETV6-NTRK3-G623R, and Ba/F3 SLC34A2-ROS1-WT stable cell strains, 5000 cells/well.”
as §3, §4, §5, §6, §7, §8, §9, §10, §11

A short description of data set [1]: Pharmacokinetic test of compounds in rats (plasma, LC/MS/MS). It counts as in vivo, male SD rats. On the procedure: Experimental purpose: male SD rats aged 7-9 weeks were selected as test animals, and the drug concentrations of the compounds in plasma at different time points after single intravenous injection (IV) and intragastric administration (PO) of the compounds were measured by an LC/MS/MS method, so that the pharmacokinetic behavior of the compounds disclosed herein in rats was studied, and the pharmacokinetic characteristic of the compounds was evaluated.
Drug preparation: the compounds were all prepared into clear solution by taking 5% DMSO+10% solutol+85% water as vehicle, and were used for administration in IV and PO groups. The dose of each compound administered was: IV, 3 mg/kg; PO, 10 mg/kg.

Some results are limits rather than exact numbers.

T10 sequence (P04629 whole entry F589L, the tested form may be a part): as the sequence (P04629 whole entry, change not shown, the tested form may be a part) above, with F589L counted along it
T2 sequence (Q16288 32-839): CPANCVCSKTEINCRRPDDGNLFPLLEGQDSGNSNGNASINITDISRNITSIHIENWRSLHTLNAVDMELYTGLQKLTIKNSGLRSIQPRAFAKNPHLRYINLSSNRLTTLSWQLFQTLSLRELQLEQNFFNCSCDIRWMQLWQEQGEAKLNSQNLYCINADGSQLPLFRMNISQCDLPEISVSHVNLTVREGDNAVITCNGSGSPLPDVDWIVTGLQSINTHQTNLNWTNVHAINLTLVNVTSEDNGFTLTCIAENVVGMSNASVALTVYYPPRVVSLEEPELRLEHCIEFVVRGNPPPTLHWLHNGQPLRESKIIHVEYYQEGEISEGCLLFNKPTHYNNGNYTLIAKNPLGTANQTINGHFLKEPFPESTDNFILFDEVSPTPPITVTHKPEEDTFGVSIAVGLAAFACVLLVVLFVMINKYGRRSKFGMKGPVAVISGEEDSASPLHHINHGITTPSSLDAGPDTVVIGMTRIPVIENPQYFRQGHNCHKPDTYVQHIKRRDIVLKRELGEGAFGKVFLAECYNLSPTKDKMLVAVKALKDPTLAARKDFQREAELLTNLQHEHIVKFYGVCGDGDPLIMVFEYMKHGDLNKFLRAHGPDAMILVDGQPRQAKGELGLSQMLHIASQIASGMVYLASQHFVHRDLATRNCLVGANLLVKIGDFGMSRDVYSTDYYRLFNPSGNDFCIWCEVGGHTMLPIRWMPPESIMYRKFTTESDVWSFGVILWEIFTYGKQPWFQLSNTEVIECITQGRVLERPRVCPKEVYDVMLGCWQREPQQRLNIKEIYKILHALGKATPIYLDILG

As for `C[C@@H]1COc2ncc(F)cc2[C@H]2COC[C@@H](C)N2c2ccn3ncc(c3n2)C(=O)N1` [WX006], the IC50 at Ros1 is 4.8 nM; on TrkC, 0.1 nM; on TrkA, 0.7 nM; on ALK it was above 1000 nM; on TrkA-G667C, 0.1 nM; at TrkA-G595R, 0.3 nM. The GI50 came out at 14.2 nM at BaF3 ETV6-NTRK3-G623R; 3.2 nM at BaF3 ETV6-NTRK3-WT; 900 nM on Ba/F3 SLC34A2-ROS1-WT; 189 nM on Ba/F3 LMNA-NTRK1-F589L; 8.4 nM at BaF3 LMNA-NTRK1-G595R; 1.5 nM at Ba/F3 LMNA-NTRK1-WT. Moreover, the GI50 on BaF3 LMNA-NTRK1-G667A was determined as 2 nM. In addition, the “Apparent clearance Cl” value in data set [1] (IV, 3 mg/kg) worked out at 32.9 mL/min/kg. Besides, the “Apparent volume of distribution Vd” value in data set [1] (IV, 3 mg/kg) is reported as 1.3 L/kg. Further, the “Area under the curve AUC0-last” value was determined as 3.818 µM·h in data set [1] (IV, 3 mg/kg) and 6.637 µM·h in data set [1] (PO, 10 mg/kg). Besides, the “Half-life T1/2” value in data set [1] (IV, 3 mg/kg) came to 36 min. In addition, the “Bioavailability F %” value in data set [1] (PO, 10 mg/kg) is given as 53%. Besides, the “Time to peak Tmax” value in data set [1] (PO, 10 mg/kg) is 30 min. The Cmax in data set [1] (PO, 10 mg/kg, read-out: Peak concentration Cmax) came out at 3.75 µM.
Consider `C[C@@H]1COC[C@@H]2c3cc(F)cnc3OCC3(CC3)NC(=O)c3cnn4ccc(nc34)N12` [WX007], for which the IC50 was 2.2 nM at Ros1; 0.1 nM on TrkC; 0.6 nM on TrkA; 901 nM at ALK; 0.1 nM at TrkA-G667C; 0.2 nM on TrkA-G595R. The GI50 at BaF3 ETV6-NTRK3-G623R is 13.1 nM; at BaF3 ETV6-NTRK3-WT, 4.1 nM; at Ba/F3 SLC34A2-ROS1-WT it was 770 nM; at Ba/F3 LMNA-NTRK1-F589L, 100 nM; at BaF3 LMNA-NTRK1-G595R, 6.4 nM; at Ba/F3 LMNA-NTRK1-WT, 0.9 nM. Moreover, the GI50 on BaF3 LMNA-NTRK1-G667A came out at 1.2 nM.
